Test results: patent publication US8841462B2, “Bicyclic heterocycles as MEK kinase inhibitors” (priority 2008, dated 2014)

Key:
[1] = test system: A375 human malignant melanoma; experiment: Cell proliferation assay, A375; format: cell-based; details: A-375, A375, 72h exposure, CellTiter-Glo, read-out: EC50 in the cell proliferation assay, A375 cell line
Protocol: (§1) Compounds are tested in a cell proliferation assay using the following cell lines:
(§2) A375 human malignant melanoma (ATCC)
(§3) Both cell lines are maintained in DMEM/F12 (1:1) media (Gibco) supplemented with 10% FCS at 37° C. in a 5% CO2 humidified incubator.
(§4) Cells are seeded in 96-well plates at 2,000 cells/well and after 24 hours they are exposed to different concentrations of compounds in 0.83% DMSO. Cells are grown for a further 72h, and an equal volume of CellTiter-Glo reagent (Promega) is added to each well. This lyses the cells and generates a luminescent signal proportional to the amount of ATP released (and therefore proportional to the number of cells in the well) that can be detected using a multi-well luminometer.
(§5) The EC50 is defined as the concentration at which a given compound achieves 50% inhibition of control. IC50 values are calculated using the XLfit software package (version 2.0.5).

[2] = test system: HCT116 human colorectal carcinoma; experiment: Cell proliferation assay, HCT116; format: cell-based; details: HCT-116, HCT116, 72h exposure, CellTiter-Glo, read-out: EC50 in the cell proliferation assay, HCT116 cell line
Protocol: as §1
(§6) HCT116 human colorectal carcinoma (ATCC)
as §3, §4, §5

[3] = test system: phospho-ERK in HCT116 human colorectal carcinoma; experiment: Phospho-ERK cell-based assay, HCT116; details: HCT-116, HCT116, 2 h or 24 h exposure, p-ERK signal normalised to PI, read-out: EC50 in the phospho-ERK cell-based assay, HCT116 cell line
Protocol: (§7) Compounds are tested in a cell-based phospho-ERK ELISA using the following cell lines:
as §6, §3
(§8) Cells are seeded in 96-well plates at 2,000 cells/well and after 24 h they are exposed to different concentrations of compounds in 0.83% DMSO. Cells are grown for a further 2 h or 24 h, fixed with formaldehyde (2% final) and permeabilised with methanol. Following blocking with TBST-3% BSA, fixed cells are incubated with primary antibody (anti-phospho ERK from rabbit) over-night at 4° C. Cells are incubated with Propidium Iodide (DNA fluorescent dye) and detection of cellular p-ERK is performed using an anti-rabbit secondary antibody conjugated to the fluorescent Alexa Fluor 488 dye (Molecular probes). The fluorescence is analysed using the Acumen Explorer (TTP Labtech), a laser-scanning microplate cytometer, and the Alexa Fluor 488 signal is normalised to the PI signal (proportional to cell number).
(§9) The EC50 is defined as the concentration at which a given compound achieves a signal half way between the baseline and the maximum response. EC50 values are calculated using the XLfit software package (version 2.0.5).

[4] = test system: phospho-ERK in A375 human malignant melanoma; experiment: Phospho-ERK cell-based assay, A375; details: A-375, A375, 2 h or 24 h exposure, p-ERK signal normalised to PI, read-out: EC50 in the phospho-ERK cell-based assay, A375 cell line
Protocol: as §7, §2, §3, §8, §9

Structure (SMILES)	EC50 [1] [nM]	EC50 [2] [nM]	EC50 [3] [nM]	EC50 [4] [nM]
O=C(NOCCO)c1ccc2[nH]ncc2c1Nc1ccc(I)cc1F [Example 5, 4-(2-Fluoro-4-iodo-phenylamino)-1H-indazole-5-carboxylic acid (2-hydroxy-ethoxy)-amide]	< 100	< 500	< 100	
O=C(NOCCO)c1cnc2[nH]ncc2c1Nc1ccc(I)cc1F [Example 6, 4-(2-Fluoro-4-iodophenylamino)-1H-pyrazolo[3,4-b]pyridine 5-carboxylic acid (2-hydroxyethoxy)-amide]	< 100	< 500	< 100	< 100
C[C@H](O)CONC(=O)c1cnc2[nH]ncc2c1Nc1ccc(I)cc1F [Example 7, 4-(2-Fluoro-4-iodophenylamino)-1H-pyrazolo[3,4-b]pyridine 5-carboxylic acid ((S)-2-hydroxypropoxy)-amide]	< 100	< 500	< 100	< 100
CC(C)(CO)ONC(=O)c1cnc2[nH]ncc2c1Nc1ccc(I)cc1F [Example 8, 4-(2-Fluoro-4-iodophenylamino)-1H-pyrazolo[3,4-b]pyridine-5-carboxylic acid (2-hydroxy-1,1-dimethylethoxy)-amide]	< 100	< 600	< 100	< 100
O=C(NOC[C@H](O)CO)c1ccc2[nH]ncc2c1Nc1ccc(I)cc1F [Example 9, 4-(2-Fluoro-4-iodophenylamino)-1H-indazole-5-carboxylic acid ((R)-2,3-dihydroxy-propoxy)-amide]	< 100	< 500	< 100	< 100
O=C(NOCCO)c1ccc2[nH]ncc2c1Nc1ccc(Br)cc1F [Example 10, 4-(4-Bromo-2-fluoro-phenylamino)-1H-indazole-5-carboxylic acid (2-hydroxy-ethoxy)-amide]	< 100	< 500	< 100	< 100
C[C@H](O)CONC(=O)c1ccc2[nH]ncc2c1Nc1ccc(Br)cc1F [Example 11, 4-(4-Bromo-2-fluoro-phenylamino)-1H-indazole-5-carboxylic acid ((S)-2-hydroxy-propoxy)-amide]	< 100	< 500	< 100	< 100
O=C(NOCCO)c1ccc2sncc2c1Nc1ccc(I)cc1F [Example 12, 4-(2-Fluoro-4-iodo-phenylamino)-benzo[d]isothiazole-5-carboxylic acid (2-hydroxy-ethoxy)-amide]	< 100	< 500	< 100	< 100
CSc1ccc(Nc2c(C(=O)NOCCO)ccc3[nH]ncc23)c(F)c1 [Example 13, 4-(2-Fluoro-4-methylsulfanyl-phenylamino)-1H-indazole-5-carboxylic acid (2-hydroxy-ethoxy)-amide]		< 500	< 100	
CCONC(=O)c1ccc2[nH]ncc2c1Nc1ccc(I)cc1F [Example 14, 4-(2-Fluoro-4-iodo-phenylamino)-1H-indazole-5-carboxylic acid ethoxy-amide]	< 100	< 500	< 100	< 100
O=C(NOCC1CC1)c1ccc2[nH]ncc2c1Nc1ccc(I)cc1F [Example 16, 4-(2-Fluoro-4-iodo-phenylamino)-1H-indazole-5-carboxylic acid cyclopropylmethoxy-amide]			< 100	
CONC(=O)c1ccc2[nH]ncc2c1Nc1ccc(I)cc1F [Example 17, 4-(2-Fluoro-4-iodo-phenylamino)-1H-indazole-5-carboxylic acid methoxy-amide]	< 100	< 500	< 100	< 100
C[C@H](O)CONC(=O)c1ccc2sncc2c1Nc1ccc(I)cc1F [Example 20, 4-(2-Fluoro-4-iodo-phenylamino)-benzo[d]isothiazole-5-carboxylic acid ((S)-2-hydroxy-propoxy)-amide]	< 100	< 500	< 100	< 100
O=C(NOC[C@H](O)CO)c1ccc2sncc2c1Nc1ccc(I)cc1F [Example 21, 4-(2-Fluoro-4-iodo-phenylamino)-benzo[d]isothiazole-5-carboxylic acid ((R)-2,3-dihydroxy-propoxy)-amide]	< 100	< 500	< 100	< 100
CSc1ccc(Nc2c(C(=O)NOC[C@H](O)CO)ccc3cnsc23)c(F)c1 [Example 22, 7-(2-Fluoro-4-methylsulfanyl-phenylamino)-benzo[d]isothiazole-6-carboxylic acid ((R)-2,3-dihydroxy-propoxy)-amide]	< 100	< 500	< 100	< 100
O=C(NOC[C@H](O)CO)c1ccc2cnsc2c1Nc1ccc(C2CC2)cc1F [Example 23, 7-(4-Cyclopropyl-2-fluoro-phenylamino)-benzo[d]isothiazole-6-carboxylic acid ((R)-2,3-dihydroxy-propoxy)-amide]	< 100			< 100
O=C(NOC[C@H](O)CO)c1ccc2cnsc2c1Nc1ccc(Br)cc1F [Example 24, 7-(4-Bromo-2-fluoro-phenylamino)-benzo[d]isothiazole-6-carboxylic acid ((R)-2,3-dihydroxy-propoxy)-amide]	< 100	< 500	< 100	< 100
O=C(NOCCO)c1ccc2cnsc2c1Nc1ccc(Br)cc1F [Example 25, 7-(4-Bromo-2-fluoro-phenylamino)-benzo[d]isothiazole-6-carboxylic acid (2-hydroxy-ethoxy)-amide]	< 100	< 500	< 100	< 100
O=C(NOCCO)c1ccc2cnsc2c1Nc1ccc(I)cc1F [Example 26, 7-(2-Fluoro-4-iodo-phenylamino)-benzo[d]isothiazole-6-carboxylic acid (2-hydroxy-ethoxy)-amide]			< 100	< 100
O=C(NOC[C@H](O)CO)c1ccc2cnsc2c1Nc1ccc(I)cc1F [Example 27, 7-(2-Fluoro-4-iodo-phenylamino)-benzo[d]isothiazole-6-carboxylic acid ((R)-2,3-dihydroxy-propoxy)amide]	< 100	< 500	< 100	< 100
